Consider one compound from patent publication US6790619B2, “Plant phosphomevalonate kinases” (Bayer Aktiengesellschaft, priority 2000, dated 2004).

The test system of this test is PMVK expression. The experiment in a line: virtual Northern blot analysis of differential PMVK expression in response to chlorsulfuron. The test is classed as in vivo, Arabidopsis thaliana cv. Columbia. The settings on record: Arabidopsis plants harvested 24 hours after treatment with chlorsulfuron 10 g/ha vs control treatment. The method, then: Suppression subtractive hybridization constitutes a method of isolating differentially expressed genes. The two samples to be compared were on the one hand Arabidopsis plants which had been harvested 24 hours after treatment with a herbicide (chlorsulfuron, 10 g/ha) and, on the other hand, Arabidopsis plants which had been harvested 24 hours after a control treatment. The 370 bp PMVK fragment was isolated from the chlorsulfuron-treated plants in which PMVK transcription may have been induced by the treatment. To verify differential PMVK expression in the response to chlorsulfuron, so-called virtual Northern blot analyses were carried out. In a virtual Northern blot, cDNA is prepared from total RNA with Clontech's SMART method (see manufacturer's instructions) and amplified by PCR. A low enough number of PCR cycles is employed so that the amplification is still within the linear range of the PCR. In the present case, an optimum between 15 and 18 cycles emerged. The SMART cDNA is separated on an agarose gel by methods known to the skilled worker, transferred to a nylon membrane and hybridized with a DIG-labelled probe. This method permits study of the expression even of genes with a low expression level.

“Also recorded” adds a separate entry of the source.

For `COc1nc(C)nc(NC(=O)NS(=O)(=O)c2ccccc2Cl)n1` [chlorsulfuron], the “induction of PMVK expression” value is on record as “low degree of induction; also recorded: possible to induce this gene”.
